According to patent publication US20150118215A1, “Methods of Inhibiting Cell Proliferation” (The General Hospital Corporation, priority 2012, published 2015):
pIC50: −log10 of the molar value. Read-outs that look alike come from different tables or passages of the source.

What was measured:
cytohesin-2 = molecular target: T1, cytohesin-2 (Homo sapiens, UniProt Q99418); assay: Radiolabel-based GEF-activity assay ([35S]-GTPγS binding) of full-length cytohesin-2 with myr-Arf1 or myr-Arf6; format: biochemical
T1 construct: steady-state enzymatic GEF-activity analysis of full-length cytohesin-2 or Sec7 domain with Arf1 and Arf6; made in house; host or cells: E. coli BL21DE3
T1 sequence (Q99418 1-400): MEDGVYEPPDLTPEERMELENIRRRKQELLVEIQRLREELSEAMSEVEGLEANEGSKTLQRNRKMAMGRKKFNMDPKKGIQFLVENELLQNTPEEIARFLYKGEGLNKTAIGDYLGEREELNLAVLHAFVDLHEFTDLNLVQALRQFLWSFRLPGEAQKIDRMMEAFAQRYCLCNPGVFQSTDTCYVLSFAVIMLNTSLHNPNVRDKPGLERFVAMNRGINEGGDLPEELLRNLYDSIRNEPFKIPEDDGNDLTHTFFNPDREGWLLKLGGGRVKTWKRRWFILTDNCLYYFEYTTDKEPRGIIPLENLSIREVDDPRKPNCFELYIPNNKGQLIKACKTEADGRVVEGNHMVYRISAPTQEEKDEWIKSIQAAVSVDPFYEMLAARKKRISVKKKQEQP
Method: Two assays were used to determine the GDP/GTP-exchange activity of both full-length cytohesin-2 and Sec7 domain.
a) Radiolabel-Based Assay.
The lipids were dissolved in chloroform. […] Proteins were trapped on nitrocellulose filters.
To test the potential signaling between V-ATPase and cytohesin-2/Arf GTP-binding proteins, a GEF-activity assay was established for cytohesin-2 (wt) and myristoylated myr-Arf6 (wt) and myr-Arf1 (wt) GTP-binding proteins (FIG. 2A). Human Arf1 was co-expressed with yeast N-myristoyltransferase in E. coli BL21/DE3 strain. Recombinant myr-Arf1 was purified from the E. coli lysate (A1) using an AKTApurifier equipped with HiTrapQ, Superdex200 columns (A2), and Phenyl Sepharose HP column (A3). Human Arf6 was also co-expressed with yeast N-myristoyltransferase in E. coli BL21/DE3 strain. Recombinant myr-Arf6 was extracted from insoluble fraction using Triton X-100 (B1). The extract was precipitated by 35% ammonium sulfate and myr-Arf6 purified with HiTrapQ column (B2). […] Several soluble, cell permeable and fluorescently labeled a2N1-17 derived peptides were synthesized, which were used in the current GEF-activity and structural studies in vitro.

[1] = molecular target: T2, Sec7 domain of cytohesin-2 (Homo sapiens, UniProt Q99418); assay: Tryptophan fluorescence-based GTPγS binding (GEF-activity) assay of Sec7 domain; format: biochemical; conditions: purified Sec7 domain; truncated [Δ17]Arf1 as substrate; read-out: IC50, inhibition of enzymatic GEF-activity of Sec7 with [Δ17]Arf1
T2 construct: The Sec7 domain of human cytohesin-2 (61-252aa) was expressed in BL21/DE3 cells; GST (N, cleaved yes); made in house; host or cells: E. coli BL21/DE3
T2 sequence (Q99418 61-252): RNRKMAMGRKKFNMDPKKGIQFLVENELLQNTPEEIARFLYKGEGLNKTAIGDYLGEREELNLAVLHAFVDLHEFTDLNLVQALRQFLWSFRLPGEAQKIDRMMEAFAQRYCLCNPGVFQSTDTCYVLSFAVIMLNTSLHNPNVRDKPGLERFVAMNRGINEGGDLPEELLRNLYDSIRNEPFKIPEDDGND

Human NSCLC A549 cells = assay: Cell proliferation assays (MTT, direct cell counting); format: cell-based; conditions: A549, wild-type EGFR, KRas-G12S; three days treatment
Method: Cell Proliferation Assays—
First, MTT proliferation assay was carried out using cell growth determination kit according to manufacturer instructions (Sigma). Human NSCLC A549 cells which are expressing wild-type EGFR with KRas-G12S activation mutation were studied in these experiments. […] Medium was changed daily for three days, and cells were stained with MTT and DAPI when indicated.
Second, direct cells counting assays were also performed as follows. Microscopic images of 0.317 mm^2 area each well were acquired for MTT stained cells and cells were counted using ImageJ (NIH). […] Alternatively, the cells were stained with DAPI and microscopic images of whole wells were acquired using DeltaVision system (Applied Precision). Cells were counted using Particle Tracker PlugIn for ImageJ as above (FIG. 13).

[2] = system: gefitinib-resistant NSCLC A549 cells; conditions: Bill et al. 2012; cited from earlier work
[3] = system: gefitinib-resistant NSCLC H460 cells; conditions: Bill et al. 2012; cited from earlier work
H460 xenografts = conditions: Bill et al.; cited from earlier work
PC-9 xenografts = conditions: Bill et al.; cited from earlier work
EGFR/ErbB-signaling = conditions: SecinH3 or cytohesin-2 knock-down; Bill et al.; cited from earlier work
lung cancer cells = conditions: SecinH3 or cytohesin-2 knock-down; Bill et al.; cited from earlier work
tumor xenografts = conditions: SecinH3 or cytohesin-2 knock-down; Bill et al.; cited from earlier work

In the case of `COc1nc(-c2ccc3c(c2)OCO3)n(-c2ccc(NC(=O)CSc3ccccc3)cc2)n1` [SecinH3], the pIC50 (cytohesin-2; myr-Arf1 as substrate, azolectin, read-out: IC50, inhibition of enzymatic GEF-activity of cytohesin-2 with myr-Arf1) was < 3.82, the pIC50 (cytohesin-2; myr-Arf6 as substrate, PIP2-containing liposomes, read-out: IC50, inhibition of enzymatic GEF-activity of cytohesin-2 with myr-Arf6) was < 3.82 and the pIC50 [1] was 5.16. For the same molecule, the “inhibition of proliferation of human lung cancer A549 cells” value (Human NSCLC A549 cells) was “anti-proliferative action”, the “proliferation of gefitinib-resistant NSCLC A549 cells” value [2] was “efficiently reduced” and the “proliferation of gefitinib-resistant NSCLC H460 cells” value [3] was “efficiently reduced”. For the same molecule, the “action in vivo in mice bearing H460 xenografts” value (H460 xenografts) was “anti-proliferative and pro-apoptotic action”, the “action in vivo in mice bearing PC-9 xenografts” value (PC-9 xenografts) was “anti-proliferative and pro-apoptotic action” and the EGFR/ErbB-signaling (EGFR/ErbB-signaling) was “reduction”. For the same molecule, the “cancer cell proliferation in vitro” value (lung cancer cells) was “suppression” and the “growth of tumor xenografts in nude mice model in vivo” value (tumor xenografts) was “reduction of growth”.
